The test system of test [1] is Aspergillus nidulans ATCC 38163 (strain L). The test is described as follows: Antifungal MIC determination, filamentous fungi spores. Type of test: cell-based. The note with it: strain L; spores. An outline of the steps:
(§1)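 Broth microdilution per CLSI M27-A3 (modified) in RPMI 1640 buffered to pH 7.0 with 0.165 M MOPS; yeast inocula grown in PDB, Aspergillus spores from PDA cultures at 25° C. Final drug 12.5-0.02 μg/mL, inoculum 5×10^3 CFU/mL; incubation 48 h at 35° C.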

For test [2], the system named is Aspergillus flavus ATCC MYA-3631 (strain K). The description is as above. Type of test: cell-based. The note with it: all compounds. An outline of the steps: as §1
The subject of test [3] is Aspergillus terreus ATCC MYA-3633 (strain M). The description is as above. Type of test: cell-based. The settings on record: strain M; all compounds; spores. An outline of the steps: as §1
The subject of test [4] is C. albicans ATCC 64124 (strain B). In words: microbe, parasite or virus in culture. The note with it: strain B; compounds 1-4n and AmB; 48 h, RPMI 1640. Type of test: cell-based, Candida albicans. An outline of the steps:
as §1

Test [5] deals with C. albicans ATCC MYA-1003(R) (strain G). The test is described as follows: microbe, parasite or virus in culture. The format is cell-based, Candida albicans. The note with it: strain G; compounds 1-4n and AmB; 48 h, RPMI 1640. A digest of the protocol: as §1
For test [6], the system named is C. albicans ATCC MYA-1237(R) (strain F). In words: microbe, parasite or virus in culture. The note with it: strain F; compounds 1-4n and AmB; 48 h, RPMI 1640. The format is cell-based, Candida albicans. An outline of the steps:
as §1

In test [7] the test system is C. albicans ATCC 90819(R) (strain D). In words: microbe, parasite or virus in culture. Type of test: cell-based, Candida albicans. The settings on record: strain D; compounds 1-4n and AmB; 48 h, RPMI 1640. A digest of the protocol:
as §1

Test [8] deals with Candida parapsilosis ATCC 22019 (strain J). The test is described as follows: Antifungal MIC determination (CLSI M27-A3, 96-well). Type of test: cell-based. The note with it: strain J; compounds 1-4n and AmB; 48 h, RPMI 1640. An outline of the steps:
as §1

Test [9] concerns Candida krusei ATCC 6258 (strain I). The description is as above. The format is cell-based. The note with it: strain I; compounds 1-4n and AmB; 48 h, RPMI 1640. An outline of the steps:
as §1

Test [10] concerns Candida glabrata ATCC 2001 (strain H). The description is as above. The settings on record: strain H; compounds 1-4n and AmB; 48 h, RPMI 1640. The format is cell-based. An outline of the steps:
as §1

Test [11] deals with Candida albicans ATCC 10231 (strain A). The test is described as above. The settings on record: strain A; compounds 1-4n and AmB; 48 h, RPMI 1640. Type of test: cell-based. An outline of the steps:
as §1

Test [12] concerns C. albicans ATCC MYA-2876(S) (strain C). Described as above. The format is cell-based, Candida albicans. The note with it: strain C; compounds 1-4n and AmB; 48 h, RPMI 1640. An outline of the steps:
as §1

The subject of test [13] is C. albicans ATCC MYA-2310(S) (strain E). Described as above. The settings on record: strain E; compounds 1-4n and AmB; 48 h, RPMI 1640. The format is cell-based, Candida albicans. An outline of the steps:
as §1

Test [14] has as its system Candida and Aspergillus strains. In words: Antifungal MIC, summary over whole panel of fungal strains. The format is cell-based. The note with it: for antifungal activity after oxidizing the sulfur atom to sulfoxide: oxidized analogues. Here is the method:
(§2) Fungal MIC determination experiments were performed using untreated 96-well plates (Corning). Cells were counted either by using a hemocytometer (Hausser Scientific, Horsham, Pa., USA) or by measuring optical density at attenuance of 600 nm (OD600) by using a Genesys 20 spectrophotometer (Thermo Scientific, Waltham, Mass., USA). Spectrophotometric and colorimetric measurements in 96-well plates were performed using a SpectraMax M5 spectrometer (Molecular Devices, Sunnyvale, Calif., USA).
(§3) Yeast strains Candida albicans ATCC 10231 (strain A), C. albicans ATCC 64124 (strain B), and C. albicans ATCC MYA-2876(S) (strain C) were kindly provided by Dr. Jon Y. Takemoto (Utah State University, Logan, UT, USA). C. albicans ATCC MYA-90819(R) (strain D), C. albicans ATCC MYA-2310(S) (strain E), C. albicans ATCC 1237(R) (strain F), C. albicans ATCC MYA-1003(R) (strain G), Candida glabrata ATCC 2001 (strain H), Candida krusei ATCC 6258 (strain I), and Candida parapsilosis ATCC 22019 (strain J) were obtained from the American Type Culture Collection (ATCC, Manassas, Va., USA). The (S) and (R) indicate that ATCC reports these strains to be susceptible (S) and resistant (R) to ITC and FLC. The filamentous fungal strains Aspergillus flavus ATCC MYA-3631 (strain K), and Aspergillus terreus ATCC MYA-3633 (strain M) were also obtained from the American Type Culture Collection (ATCC, Manassas, Va., USA). Aspergillus nidulans ATCC 38163 (strain L) was kindly provided by Dr. Jon S. Thorson (University of Kentucky, Lexington, Ky., USA), respectively. Yeast strains were cultured at 35° C. Filamentous fungal strains were cultured at 25° C. and the spores were harvested. All fungal strains were cultured in RPMI 1640 medium (catalog # R6504, Sigma-Aldrich Chemical Co., St. Louis, Mo.) buffered to pH 7.0 with 0.165 M morpholinepropanesulfonic acid (MOPS) buffer (Sigma-Aldrich Chemical Co.).
(§4) The MIC values against fungal strains were determined based on a previously published protocol. MIC values for ebsulfur (2a) analogues against fungal cells were evaluated in 96-well plates as described in the CLSI document M27-A3 with minor modifications. […] Therefore, potato dextrose broth (PDB) was used to grow the yeast inocula of all strains tested, which were later diluted in RPMI 1640 medium to perform determination of MIC values. […] The tested compounds (10 mg/mL) were diluted to the working stocks (500 μg/mL) by addition of DMSO. Two-fold serial dilution of the working stocks was prepared by addition of RPMI 1640 medium (100 μL) and cell suspension (100 μL) to 96-well microtiter plate to achieve final drug and inoculum concentrations ranging from 12.5-0.02 μg/mL and 5×10^3 CFU/mL, respectively. Plates were incubated for 48 h at 35° C. […]

Test [15] deals with C. albicans ATCC 64124 (strain B). Type of test: cell-based, Candida albicans. The settings on record: 2× MIC. Here is the method:
The efficiency of the compounds to kill C. albicans ATCC 64124 (strain B) was monitored using a previously published protocol. The cell suspensions were prepared to achieve an inoculum of approximately 1-4×10^5 CFU/mL in RPMI 1640 medium at 35° C. […] After fungal cell addition, at 0, 3, 6, 9, 12, and 24 h, the tubes were vortexed and 100 μL aliquots were removed from each solution, spread onto PDA plates, and incubated at 35° C. Colony counts were determined after 24 h of incubation. The experiments were performed in duplicate (FIG. 2).
Time-kill assays with ebsulfur (2a) and analogue 3a (FIG. 2) were performed to determine the rate of fungicidal activity of the compounds if the invention.

The next test relates to Candida strains (A-J). The test is described as follows: Antifungal MIC, summary over panel of Candida strains. Type of test: cell-based. The settings on record: Candida strains A-J. The protocol:
as §2, §3, §4

Converted amounts (≈) assume the structure as drawn.

Regarding `O=c1c2ccccc2[s+]([O-])n1C1CCCCCCC1` (stereo not shown) [Compound 4n], the MIC-0 in test [1], in test [2], in test [3], in test [4], in [5] and in [6] was more than 12.5 µg/mL each time. Moreover, the MIC-0 in test [7], in test [8], in test [9], in test [10], in test [11] and in test [12] was more than 12.5 µg/mL in each case. This compound also displayed an MIC-0 in [13] of more than 12.5 µg/mL. For the same compound, the “antifungal activity after oxidizing the sulfur atom to sulfoxide” value (from here on “antifungal activity”) in test [14] was “completely abolished”.

With `CC(C)CCn1c(=O)c2ccccc2[s+]1[O-]` (stereo not shown) [Compound 4f], the MIC-0 in [1], in test [2], in test [3], in test [4], in [5] and in test [6] was more than 12.5 µg/mL throughout. Besides, the MIC-0 in [7], in test [8], in test [9], in test [10], in test [11] and in test [12] was more than 12.5 µg/mL each time. This compound gave an MIC-0 in [13] of more than 12.5 µg/mL. Also, the “antifungal activity” value in [14] is “completely abolished”.

For the compound `C[C@@H]1[C@H](O)[C@@H](C)/C=C/C=C/C=C/C=C/C=C/C=C/C=C/[C@H](O[C@@H]2O[C@H](C)[C@@H](O)[C@H](N)[C@@H]2O)C[C@@H]2O[C@](O)(C[C@@H](O)C[C@@H](O)[C@H](O)CC[C@@H](O)C[C@@H](O)CC(=O)O[C@H]1C)C[C@H](O)[C@H]2C(=O)O` [AmB, amphotericin B, reference compound], the MIC-0 in [2] was 15.6 µg/mL (≈ 16.9 µM); in [3] it was 3.9 µg/mL (≈ 4.22 µM); in test [4], 3.9 µg/mL (≈ 4.22 µM); in test [5], 3.9 µg/mL (≈ 4.22 µM); in [6], 3.9 µg/mL (≈ 4.22 µM); in test [7], 0.98 µg/mL (≈ 1.06 µM). Further, the MIC-0 in test [8] came out at 1.95 µg/mL (≈ 2.11 µM); in [9], 3.9 µg/mL (≈ 4.22 µM); in [10] it was 1.95 µg/mL (≈ 2.11 µM); in test [11] it was 3.9 µg/mL (≈ 4.22 µM). In addition, the “time from which completely fungicidal” value in test [15] worked out at 6 h. The “MIC values, range over the panel of fungal strains” value in test [14] (Candida and Aspergillus strains, controls, tested herein or previously published) fell in the range of 0.98 to 15.6 µg/mL.

Consider `C#Cc1ccc(-n2sc3ccccc3c2=O)cc1` [Compound 2f], for which the MIC-0 in test [1], in [2], in [3], in test [4], in test [5] and in test [6] was 12.5 µg/mL (≈ 49.7 µM) each time. Besides, the MIC-0 in test [7] was 12.5 µg/mL (≈ 49.7 µM); in test [8], 12.5 µg/mL (≈ 49.7 µM); in test [9], 6.25 µg/mL (≈ 24.9 µM); in [10], 6.25 µg/mL (≈ 24.9 µM); in test [11], 12.5 µg/mL (≈ 49.7 µM); in test [12] it was more than 12.5 µg/mL. The MIC-0 in test [13] is more than 12.5 µg/mL. For the same compound, the “MIC values against Candida strains, range” value in the test on Candida strains (A-J) was more than 12.5 µg/mL.

For `CC(C)Cn1c(=O)c2ccccc2[s+]1[O-]` (stereo not shown) [Compound 4e], the MIC-0 in test [1], in [2], in test [3], in test [4], in [5] and in test [6] was more than 12.5 µg/mL in each case. Also, the MIC-0 in test [7], in test [8], in test [9], in test [10], in test [11] and in [12] was more than 12.5 µg/mL each time. The compound also gave an MIC-0 in test [13] of more than 12.5 µg/mL. In test [14], the “antifungal activity” value was “completely abolished”.

As to `O=c1c2ccccc2sn1-c1cccc(Br)c1` [Compound 2g], the MIC-0 in test [1], in test [2], in test [3], in [4], in [5] and in test [6] was 12.5 µg/mL (≈ 40.8 µM) in each case. The MIC-0 in [7] is 12.5 µg/mL (≈ 40.8 µM); in test [8], 12.5 µg/mL (≈ 40.8 µM); in test [9], 12.5 µg/mL (≈ 40.8 µM); in [10], 12.5 µg/mL (≈ 40.8 µM); in test [11], more than 12.5 µg/mL; in test [12], 12.5 µg/mL (≈ 40.8 µM). In [13], this compound showed an MIC-0 of more than 12.5 µg/mL. Also, the “MIC values against Candida strains, range” value with Candida strains (A-J) is more than 12.5 µg/mL.

The values are drawn from patent publication US10544112B2, “Identification of ebsulfur analogues with broad-spectrum antifungal activity” (priority 2017, dated 2020).
